One series has as its system ER/Nf-kB. The series is described as follows: ER/NF-κB luciferase reporter assay in Ad5-wt-ER infected HAECT-1 cells (IL-1β induced). The class given is cell-based, human. Conditions: for IC50: Homo sapiens, HAECT1; for ER/Nf-kB Efficacy: relative to maximal inhibition observed with E2. The procedure, abridged: (§1)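 Ad5-wt-hERα-infected HAECT-1 cells, with uninfected cells as controls; after infection, cells were washed, incubated overnight in EBM-BSA, then held at 34 °C for 1 h. Luciferase was read by luminometry on cell lysates. IC50/EC50 came from four-parameter logistic fits of mean IL-6, luciferase or CK values versus log10 compound concentration.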

For the next series, the system named is creatine kinase. The series is described as follows: Creatine kinase assay in Ad5-wt-ER infected HAECT-1 cells. The class given is cell-based, human. To be noted: Homo sapiens; for EC50: HAECT1, CK stimulation, N/O = activity not observed at concentrations tested, read-out: CK IC50; for Emax: HAECT1, relative to maximal stimulation observed with E2, read-out: CK Efficacy. The procedure, abridged:
as §1

Each structure is given as a SMILES string.

`CCC1c2ccc(C#N)n2-c2ccc(C(F)(F)F)cc2N1S(=O)(=O)c1ccc(O)c(C)c1` (stereo not shown) [Example 59, 4-ethyl-5-[(4-hydroxy-3-methylphenyl)sulfonyl]-7-(trifluoromethyl)-4,5-dihydropyrrolo[1,2-a]quinoxaline-1-carbonitrile]: the melting point was in the range of 194 to 196 °C. Besides, in the series with ER/Nf-kB, the IC50 worked out at 9700 nM and the “ER/Nf-kB Efficacy” value was 75%. In addition, in the series on creatine kinase, the EC50 turned out to be 3000 nM and the Emax is -13%.

As to `CCC1c2ccc(C#N)n2-c2ccc(F)cc2N1S(=O)(=O)c1ccc(O)cc1` (stereo not shown) [Example 35, 4-ethyl-7-fluoro-5-[(4-hydroxyphenyl)sulfonyl]-4,5-dihydropyrrolo[1,2-a]quinoxaline-1-carbonitrile], the melting point fell in the range of 169 to 171 °C. Moreover, in the series on ER/Nf-kB, the IC50 came out at 962 nM and the “ER/Nf-kB Efficacy” value worked out at 72%. Moreover, in the series on creatine kinase, the EC50 is 107 nM and the Emax was 19%.

(Values after patent US7563793B2, “Pyrrolo[1,2-a]quinoxalin-5-(4H)-yl)sulfonyls and carbonyls and their use as estrogenic agents” (Wyeth, priority 2004, dated 2009).)
